Converted amounts (≈) assume the structure as drawn.

By half-life is commonly meant the time in which the quantity being followed falls by half. The EC50 is the midpoint of the concentration-response curve. In general, IC50 refers to the point on the concentration scale where inhibition reaches its midpoint. As a reminder, the fraction unbound is the share of the substance not bound to proteins or other matrix. Broadly, the solubility is the concentration that dissolves in the medium under given conditions. What is called Cmax is the peak of the concentration-time curve. The term AUC denotes the area under the concentration-time curve, a measure of exposure. Broadly, the clearance is the volume of plasma or blood freed of the substance per unit of time. A word on the bioavailability: it is dose-corrected exposure relative to a reference, in per cent.

Series [1] can be described thus: Metabolic stability in human liver microsomes assessed as half life. It counts as ADME, Microsome.
For series [2], the target named is T1, Nuclear receptor ROR-gamma (Mus musculus, UniProt P51450).
T1 sequence (P51450 whole entry): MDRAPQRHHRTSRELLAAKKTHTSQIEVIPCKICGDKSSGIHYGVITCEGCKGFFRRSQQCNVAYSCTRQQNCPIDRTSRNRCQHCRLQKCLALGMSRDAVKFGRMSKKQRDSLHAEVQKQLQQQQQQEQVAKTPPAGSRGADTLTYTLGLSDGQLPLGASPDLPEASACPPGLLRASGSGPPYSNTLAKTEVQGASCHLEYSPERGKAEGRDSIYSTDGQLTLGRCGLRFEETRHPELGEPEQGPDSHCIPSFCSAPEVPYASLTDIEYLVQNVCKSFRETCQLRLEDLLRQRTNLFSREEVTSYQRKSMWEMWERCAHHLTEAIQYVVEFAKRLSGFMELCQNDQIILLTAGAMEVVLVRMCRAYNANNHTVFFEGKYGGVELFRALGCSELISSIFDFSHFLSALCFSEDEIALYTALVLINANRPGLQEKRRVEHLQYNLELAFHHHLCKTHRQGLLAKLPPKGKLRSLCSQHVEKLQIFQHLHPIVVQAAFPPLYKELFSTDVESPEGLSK
Nature of the series: Inverse agonist activity at RORgammat in mouse Th17 cells. Format: cell-based.

The target in series [3] is T2, Oxysterols receptor LXR-alpha (Homo sapiens, UniProt Q13133).
T2 sequence (Q13133 whole entry): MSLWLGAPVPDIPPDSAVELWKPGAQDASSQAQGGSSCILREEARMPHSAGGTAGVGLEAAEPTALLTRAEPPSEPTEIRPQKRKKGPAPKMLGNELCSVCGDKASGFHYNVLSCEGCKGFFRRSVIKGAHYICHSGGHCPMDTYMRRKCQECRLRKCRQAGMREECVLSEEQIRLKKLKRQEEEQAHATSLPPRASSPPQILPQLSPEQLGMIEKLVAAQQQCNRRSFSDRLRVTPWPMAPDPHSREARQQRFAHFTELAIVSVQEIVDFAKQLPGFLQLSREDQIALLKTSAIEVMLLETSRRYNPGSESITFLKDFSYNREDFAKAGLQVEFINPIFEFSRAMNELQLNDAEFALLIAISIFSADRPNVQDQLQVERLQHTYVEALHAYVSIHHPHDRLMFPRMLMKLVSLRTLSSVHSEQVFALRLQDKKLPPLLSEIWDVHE
Nature of the series: Inverse agonist activity of LXRalpha (unknown origin).

The next series concerns the target T3, Cytochrome P450 2C8 (Homo sapiens, UniProt P10632).
T3 sequence (P10632 whole entry): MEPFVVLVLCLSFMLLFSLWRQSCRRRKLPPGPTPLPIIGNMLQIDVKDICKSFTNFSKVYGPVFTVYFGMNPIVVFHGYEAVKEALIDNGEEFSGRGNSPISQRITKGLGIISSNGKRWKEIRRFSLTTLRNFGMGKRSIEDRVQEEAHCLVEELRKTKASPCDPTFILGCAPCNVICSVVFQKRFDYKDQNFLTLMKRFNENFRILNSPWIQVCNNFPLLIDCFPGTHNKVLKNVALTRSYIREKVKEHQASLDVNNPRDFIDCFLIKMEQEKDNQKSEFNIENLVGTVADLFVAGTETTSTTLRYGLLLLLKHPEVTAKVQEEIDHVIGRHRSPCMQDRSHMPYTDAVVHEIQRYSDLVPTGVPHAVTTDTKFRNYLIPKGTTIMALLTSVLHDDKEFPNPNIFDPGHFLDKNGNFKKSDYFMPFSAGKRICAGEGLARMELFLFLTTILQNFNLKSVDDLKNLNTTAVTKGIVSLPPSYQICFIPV
Nature of the series: Inhibition of recombinant CYP2C8 (unknown origin). Format: ADME.

A further series concerns the target Cytochrome P450 2D6 (Homo sapiens, UniProt P10635). Nature of the series: Inhibition of recombinant CYP2D6 (unknown origin). Format: ADME.
The target of a further series is Cytochrome P450 3A4 (Homo sapiens, UniProt P08684). Nature of the series: Inhibition of recombinant CYP3A4 (unknown origin). Format: ADME.
Cytochrome P450 3A4, sequence (P08684 whole entry): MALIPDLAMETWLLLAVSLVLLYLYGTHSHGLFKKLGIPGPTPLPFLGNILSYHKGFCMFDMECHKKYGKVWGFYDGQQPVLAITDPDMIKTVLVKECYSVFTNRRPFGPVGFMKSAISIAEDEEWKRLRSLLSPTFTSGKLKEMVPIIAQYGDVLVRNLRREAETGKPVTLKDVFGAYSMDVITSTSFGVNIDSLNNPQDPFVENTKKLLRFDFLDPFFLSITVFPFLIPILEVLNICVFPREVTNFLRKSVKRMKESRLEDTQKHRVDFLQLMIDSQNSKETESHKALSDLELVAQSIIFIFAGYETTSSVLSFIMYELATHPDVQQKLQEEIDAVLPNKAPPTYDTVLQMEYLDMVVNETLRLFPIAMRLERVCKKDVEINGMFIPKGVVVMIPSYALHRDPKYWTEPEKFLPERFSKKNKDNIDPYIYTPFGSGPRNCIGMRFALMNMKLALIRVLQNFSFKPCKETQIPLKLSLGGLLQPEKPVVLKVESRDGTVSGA
A short description of series [4]: Fraction unbound in mouse plasma. It counts as ADME, cell-free.
Series [5] addresses Voltage-gated inwardly rectifying potassium channel KCNH2 (Homo sapiens, UniProt Q12809). Nature of the series: Inhibition of human ERG by patch clamp assay. On the technique in general: The patch-clamp technique gives a direct electrical read-out from membranes.
The nature of series [6]: Solubility of compound at pH 7.4. The following applies: buffer. Format: physicochemical.
Series [7] can be described thus: Cmax in BALB/c mouse at 4 mg/kg, po. The following applies: in vivo. More on the design: route oral, dose 4 mg/kg. It counts as ADME, organism-based.
Series [8] is described as follows: Total AUC in BALB/c mouse at 2 mg/kg, iv. It counts as ADME, organism-based. More on the design: route intravenous, time AUCmax, dose 2 mg/kg. The following applies: in vivo.
The nature of series [9]: Clearance in BALB/c mouse at 2 mg/kg, iv. Format: ADME, organism-based. The following applies: in vivo.
Series [10] can be described thus: Volume of distribution at steady state in BALB/c mouse at 2 mg/kg, iv. It counts as ADME, organism-based. The following applies: in vivo, read-out: Vdss.
Series [11] in a line: Half life in BALB/c mouse at 2 mg/kg, iv. Format: ADME, organism-based. The following applies: in vivo.
Series [12] in a line: Oral bioavailability in BALB/c mouse at 4 mg/kg. It counts as ADME, organism-based. The following applies: in vivo.
Series [13] can be described thus: Total AUC in rat at 2 mg/kg, iv. Format: ADME, organism-based. More on the design: time AUCmax, route intravenous, dose 2 mg/kg. The following applies: in vivo.
Series [14] in a line: Total AUC in rat at 4 mg/kg, po. Format: ADME, organism-based. Also on record: time AUCmax, route oral, dose 4 mg/kg. The following applies: in vivo.
Series [15] can be described thus: Cmax in dog at 2 mg/kg, po. The following applies: in vivo. More on the design: route oral, dose 2 mg/kg. Format: ADME, organism-based, Canis lupus familiaris.
Series [16] in a line: Volume of distribution at steady state in dog at 1 mg/kg, iv. Format: ADME, organism-based, Canis lupus familiaris. The following applies: in vivo, read-out: Vdss.
Series [17] can be described thus: Cmax in cynomolgus monkey at 2 mg/kg, po. Format: ADME, organism-based, Macaca fascicularis. More on the design: route oral, dose 2 mg/kg. The following applies: in vivo.
Series [18] is described as follows: Total AUC in cynomolgus monkey at 2 mg/kg, po. Also on record: route oral, time AUCmax, dose 2 mg/kg. It counts as ADME, organism-based, Macaca fascicularis. The following applies: in vivo.

Cytochrome P450 2D6, sequence (P10635 whole entry): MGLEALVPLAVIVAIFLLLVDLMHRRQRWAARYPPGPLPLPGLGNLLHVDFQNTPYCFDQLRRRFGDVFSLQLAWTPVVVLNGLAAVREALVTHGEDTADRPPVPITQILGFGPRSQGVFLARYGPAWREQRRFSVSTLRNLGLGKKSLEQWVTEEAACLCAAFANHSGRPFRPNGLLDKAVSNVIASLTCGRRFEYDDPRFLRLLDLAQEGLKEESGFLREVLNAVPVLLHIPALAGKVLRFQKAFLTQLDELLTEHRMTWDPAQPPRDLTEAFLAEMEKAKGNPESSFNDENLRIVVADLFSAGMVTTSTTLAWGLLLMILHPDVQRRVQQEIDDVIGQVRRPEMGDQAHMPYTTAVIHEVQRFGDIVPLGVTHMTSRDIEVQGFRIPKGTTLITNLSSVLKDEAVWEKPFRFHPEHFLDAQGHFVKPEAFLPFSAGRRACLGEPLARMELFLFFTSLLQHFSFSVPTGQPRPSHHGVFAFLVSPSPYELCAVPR
Voltage-gated inwardly rectifying potassium channel KCNH2, sequence (Q12809 whole entry): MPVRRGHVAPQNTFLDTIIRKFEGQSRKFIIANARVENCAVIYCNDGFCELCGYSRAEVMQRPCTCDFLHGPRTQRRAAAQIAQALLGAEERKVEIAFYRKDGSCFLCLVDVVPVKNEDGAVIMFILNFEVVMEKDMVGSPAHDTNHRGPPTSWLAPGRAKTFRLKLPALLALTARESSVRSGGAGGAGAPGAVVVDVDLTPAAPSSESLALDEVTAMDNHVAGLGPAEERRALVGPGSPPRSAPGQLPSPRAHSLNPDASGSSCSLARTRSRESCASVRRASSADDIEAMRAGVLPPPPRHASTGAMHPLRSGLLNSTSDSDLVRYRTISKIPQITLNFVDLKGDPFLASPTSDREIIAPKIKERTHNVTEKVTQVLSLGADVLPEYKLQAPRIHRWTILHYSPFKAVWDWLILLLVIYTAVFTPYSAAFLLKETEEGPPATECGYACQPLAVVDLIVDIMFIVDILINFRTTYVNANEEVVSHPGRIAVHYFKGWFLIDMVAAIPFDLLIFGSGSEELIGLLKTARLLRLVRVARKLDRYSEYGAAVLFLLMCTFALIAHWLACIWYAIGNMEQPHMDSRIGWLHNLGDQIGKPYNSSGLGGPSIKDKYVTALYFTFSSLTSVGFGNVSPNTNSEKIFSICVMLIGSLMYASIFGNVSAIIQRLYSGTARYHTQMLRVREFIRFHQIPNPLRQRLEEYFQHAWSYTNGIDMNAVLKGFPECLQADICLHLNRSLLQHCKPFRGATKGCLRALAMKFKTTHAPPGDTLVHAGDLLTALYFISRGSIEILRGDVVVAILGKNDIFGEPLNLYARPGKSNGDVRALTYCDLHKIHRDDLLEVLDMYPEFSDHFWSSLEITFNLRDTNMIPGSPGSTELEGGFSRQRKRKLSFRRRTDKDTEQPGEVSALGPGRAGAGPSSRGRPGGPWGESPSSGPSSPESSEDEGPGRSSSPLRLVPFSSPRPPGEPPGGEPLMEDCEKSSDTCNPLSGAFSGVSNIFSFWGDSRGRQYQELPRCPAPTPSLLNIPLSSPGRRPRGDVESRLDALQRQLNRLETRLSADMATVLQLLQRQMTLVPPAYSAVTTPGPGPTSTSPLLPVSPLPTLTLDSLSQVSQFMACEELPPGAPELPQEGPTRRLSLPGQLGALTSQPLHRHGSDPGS

As to `C[C@H]1C[C@H](C(=O)O)CC[C@H]1C(=O)N1CC[C@@]2(S(=O)(=O)c3ccccc3)c3cc(F)c(C(F)(C(F)(F)F)C(F)(F)F)cc3CC[C@@H]12`, the half-life in series [1] was > 2 h; in series [11], 7.7 h. The results for the EC50 in series [2] and in series [3] were 0.002 µM and > 12 µM, respectively. The IC50 on Cytochrome P450 2C8 is 1.9 µM; at Cytochrome P450 2D6 it was > 20 µM; on Cytochrome P450 3A4, > 20 µM; in series [5], 18 µM. Also, the fraction unbound in series [4] is 0.016. Besides, in series [6], the solubility worked out at 1.6 mg/mL (≈ 2400 µM). Also, the figures for the Cmax in series [7], in [15] and in [17] were 4.6 µM, 3.8 µM and 3.9 µM, respectively. In addition, the AUC was found to be 20 µM·h in series [8], 20 µM·h in series [13], 44 µM·h in [14] and 55 µM·h in series [18]. For the same compound, the clearance in series [9] came to 0.15 L/h/kg. In addition, the Vd in series [10] worked out at 1.6 L/kg; in series [16], 0.7 L/kg. In series [12], this compound came in with a bioavailability of 98%.

The values are drawn from ChEMBL document CHEMBL4699477, “Tricyclic sulfones as potent, selective and efficacious RORγt inverse agonists - Exploring C6 and C8 SAR using late-stage functionalization” (Bioorg Med Chem Lett, 2020).
